Like-named read-outs stand apart in the source and are kept apart here.
Tests used:
[1] = molecular target: hERG (Homo sapiens (Human), UniProt Q12809); experiment: Patch clamp assay (hERG tail currents, whole-cell); format: cell-based; conditions: hERG transfected HEK 293 cells; for hERG % Remaining 30 μM: 30 μM compound
[2] = molecular target: Menin-MLL (Homo sapiens (Human), UniProt O00255); experiment: Determination of binding constants (Ki) to Menin-MLL (HTRF)
[3] = HTRF, 0.25 nM H-FL-Menin, 3.2 nM FITC-MLL-4-43, 24 hr incubation, read-out: Menin-MLL Ki HTRF Assay: Ki

Chain of hERG (Q12809 whole entry): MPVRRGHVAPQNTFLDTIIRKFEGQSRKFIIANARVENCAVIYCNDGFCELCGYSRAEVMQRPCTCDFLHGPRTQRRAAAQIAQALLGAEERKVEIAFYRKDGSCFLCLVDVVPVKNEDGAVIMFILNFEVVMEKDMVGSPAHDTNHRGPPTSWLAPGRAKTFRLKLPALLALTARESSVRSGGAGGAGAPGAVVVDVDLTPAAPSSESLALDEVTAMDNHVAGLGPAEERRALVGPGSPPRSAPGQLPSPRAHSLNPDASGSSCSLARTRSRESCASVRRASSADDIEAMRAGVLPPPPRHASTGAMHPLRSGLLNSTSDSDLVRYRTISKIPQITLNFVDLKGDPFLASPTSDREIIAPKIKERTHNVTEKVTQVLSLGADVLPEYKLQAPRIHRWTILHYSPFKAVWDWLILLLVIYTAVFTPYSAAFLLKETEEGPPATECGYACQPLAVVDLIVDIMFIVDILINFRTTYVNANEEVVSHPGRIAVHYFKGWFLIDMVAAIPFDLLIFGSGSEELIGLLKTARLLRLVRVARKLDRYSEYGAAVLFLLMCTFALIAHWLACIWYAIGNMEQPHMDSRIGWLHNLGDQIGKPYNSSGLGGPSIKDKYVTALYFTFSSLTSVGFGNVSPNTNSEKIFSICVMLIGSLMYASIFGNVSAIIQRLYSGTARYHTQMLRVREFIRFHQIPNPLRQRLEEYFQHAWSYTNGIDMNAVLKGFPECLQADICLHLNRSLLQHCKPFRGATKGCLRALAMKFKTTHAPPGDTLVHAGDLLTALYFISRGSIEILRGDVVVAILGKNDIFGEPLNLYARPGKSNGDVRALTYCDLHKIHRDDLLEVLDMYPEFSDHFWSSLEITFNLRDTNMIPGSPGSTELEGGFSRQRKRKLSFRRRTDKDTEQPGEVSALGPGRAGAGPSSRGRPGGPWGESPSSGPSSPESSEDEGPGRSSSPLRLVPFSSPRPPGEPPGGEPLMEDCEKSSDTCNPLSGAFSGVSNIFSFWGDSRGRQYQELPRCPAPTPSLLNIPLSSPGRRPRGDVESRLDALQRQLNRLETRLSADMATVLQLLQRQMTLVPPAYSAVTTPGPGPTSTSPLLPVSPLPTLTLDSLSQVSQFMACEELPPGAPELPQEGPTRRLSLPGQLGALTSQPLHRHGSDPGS
Chain of Menin-MLL (O00255 whole entry): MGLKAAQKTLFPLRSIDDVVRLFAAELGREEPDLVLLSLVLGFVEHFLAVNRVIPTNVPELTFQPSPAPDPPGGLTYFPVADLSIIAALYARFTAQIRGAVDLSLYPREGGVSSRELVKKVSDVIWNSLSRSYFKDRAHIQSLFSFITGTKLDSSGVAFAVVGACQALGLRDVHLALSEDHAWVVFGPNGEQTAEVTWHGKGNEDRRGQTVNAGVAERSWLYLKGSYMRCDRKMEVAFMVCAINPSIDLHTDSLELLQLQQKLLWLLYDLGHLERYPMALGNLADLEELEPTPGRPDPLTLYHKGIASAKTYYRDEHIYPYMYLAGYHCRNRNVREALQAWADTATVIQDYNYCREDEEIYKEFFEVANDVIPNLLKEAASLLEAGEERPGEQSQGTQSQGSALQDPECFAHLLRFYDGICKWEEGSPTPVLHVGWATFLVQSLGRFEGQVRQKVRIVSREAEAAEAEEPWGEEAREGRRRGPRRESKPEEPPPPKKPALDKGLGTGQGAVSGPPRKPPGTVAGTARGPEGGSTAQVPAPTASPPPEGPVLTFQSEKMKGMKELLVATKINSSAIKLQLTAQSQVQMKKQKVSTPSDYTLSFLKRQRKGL

Row | Compound | hERG % Remaining 30 μM [1] | Ki [2, 3] | Ki [2] | IC50 [1] | hERG % Remaining 10 μM ([1]; 10 μM compound) | EC50 ([2]; HTRF, 0.25 nM H-FL-Menin, 3.2 nM FITC-MLL-4-43, 24 hr incubation)
1 | CC(C)N(C(=O)c1cc(F)ccc1Oc1cncnc1N1CC2(CCN(C[C@@H]3CC[C@@H](NS(=O)(=O)N4CCC[C@H]4C)CO3)CC2)C1)C(C)C [Compound 203, 5-Fluoro-N,N-diisopropyl-2-((4-(7-(((2S,5R)-5-(((R)-2-methylpyrrolidine)-1-sulfonamido)tetrahydro-2H-pyran-2-yl)methyl)-2,7-diazaspiro[3.5]nonan-2-yl)pyrimidin-5-yl)oxy)benzamide] | + (“+” means <33%) | < 1 nM |  |  |  | 
2 | C[C@@H]1COC[C@@H](C)N1C(=O)c1cc(F)ccc1Oc1cncnc1N1CC2(CCN(C[C@@H]3CC[C@@H](NS(=O)(=O)N4CCC[C@H]4C)CO3)CC2)C1 [Compound 208, (R)-N-((3R,6S)-6-((2-(5-(2-((3R,5R)-3,5-Dimethylmorpholine-4-carbonyl)-4-fluorophenoxy)pyrimidin-4-yl)-2,7-diazaspiro[3.5]nonan-7-yl)methyl)tetrahydro-2H-pyran-3-yl)-2-methylpyrrolidine-1-sulfonamide] | +++ (“+++” means ≥66%) | < 1 nM |  |  |  | 
3 | C[C@@H]1COC[C@@H](C)N1C(=O)c1cc(F)ccc1Oc1cncnc1N1CC2(CCN(C[C@@H]3CC[C@@H](NS(=O)(=O)N4CCC[C@@H]4C)CO3)CC2)C1 [Compound 209, (S)-N-((3R,6S)-6-((2-(5-(2-((3R,5R)-3,5-Dimethylmorpholine-4-carbonyl)-4-fluorophenoxy)pyrimidin-4-yl)-2,7-diazaspiro[3.5]nonan-7-yl)methyl)tetrahydro-2H-pyran-3-yl)-2-methylpyrrolidine-1-sulfonamide] | +++ (“+++” means ≥66%) | < 1 nM |  |  |  | 
4 | CO[C@H]1CCN(S(=O)(=O)N[C@@H]2CC[C@@H](CN3CCC4(CC3)CN(c3ncncc3Oc3ccc(F)cc3C(=O)N(C(C)C)C(C)C)C4)OC2)C1 [Compound 210, 5-Fluoro-N,N-diisopropyl-2-((4-(7-(((2S,5R)-5-(((S)-3-methoxypyrrolidine)-1-sulfonamido)tetrahydro-2H-pyran-2-yl)methyl)-2,7-diazaspiro[3.5]nonan-2-yl)pyrimidin-5-yl)oxy)benzamide] | +++ (“+++” means ≥66%) | < 1 nM |  |  |  | 
5 | CO[C@@H]1CCN(S(=O)(=O)N[C@@H]2CC[C@@H](CN3CCC4(CC3)CN(c3ncncc3Oc3ccc(F)cc3C(=O)N(C(C)C)C(C)C)C4)OC2)C1 [Compound 211, 5-Fluoro-N,N-diisopropyl-2-((4-(7-(((2S,5R)-5-(((R)-3-methoxypyrrolidine)-1-sulfonamido)tetrahydro-2H-pyran-2-yl)methyl)-2,7-diazaspiro[3.5]nonan-2-yl)pyrimidin-5-yl)oxy)benzamide] | +++ (“+++” means ≥66%) | < 1 nM |  |  |  | 
6 | CC(C)N(CC(F)F)C(=O)c1cc(F)ccc1Oc1cncnc1N1CC2(CCN(C[C@@H]3CC[C@@H](NS(=O)(=O)N(C)CCCO)CO3)CC2)C1 [Compound 214, N-(2,2-difluoroethyl)-5-fluoro-2-((4-(7-(((2S,5R)-5-((N-(3-hydroxypropyl)-N-methylsulfamoyl)amino)tetrahydro-2H-pyran-2-yl)methyl)-2,7-diazaspiro[3.5]nonan-2-yl)pyrimidin-5-yl)oxy)-N-isopropylbenzamide] | +++ (“+++” means ≥66%) | < 1 nM |  |  |  | 
7 | CCN(C(=O)c1cc(F)ccc1Oc1cncnc1N1CC2(CCN(C[C@@H]3CC[C@@H](NS(=O)(=O)c4ccc(=O)[nH]c4C)CO3)CC2)C1)C(C)C [Compound 217, N-Ethyl-5-fluoro-N-isopropyl-2-((4-(7-(((2S,5R)-5-((2-methyl-6-oxo-1,6-dihydropyridine)-3-sulfonamido)tetrahydro-2H-pyran-2-yl)methyl)-2,7-diazaspiro[3.5]nonan-2-yl)pyrimidin-5-yl)oxy)benzamide] | +++ (“+++” means ≥66%) | < 1 nM |  |  |  | 
8 | CCN(C(=O)c1cc(F)ccc1Oc1cncnc1N1CC2(CCN(C[C@@H]3CC[C@@H](NS(=O)(=O)c4c[nH]c(=O)c(C)c4)CO3)CC2)C1)C(C)C [Compound 218, N-Ethyl-5-fluoro-N-isopropyl-2-((4-(7-(((2S,5R)-5-((5-methyl-6-oxo-1,6-dihydropyridine)-3-sulfonamido)tetrahydro-2H-pyran-2-yl)methyl)-2,7-diazaspiro[3.5]nonan-2-yl)pyrimidin-5-yl)oxy)benzamide] | + (“+” means <33%) | < 1 nM |  |  |  | 
9 | CC(C)N(C(=O)c1cc(F)ccc1Oc1cncnc1N1CC2(CCN(C[C@@H]3CC[C@@H](NS(=O)(=O)N4CC5(CCOC5)C4)CO3)CC2)C1)C(C)C [Compound 223, 2-((4-(7-(((2S,5R)-5-(6-Oxa-2-azaspiro[3.4]octane-2-sulfonamido)tetrahydro-2H-pyran-2-yl)methyl)-2,7-diazaspiro[3.5]nonan-2-yl)pyrimidin-5-yl)oxy)-5-fluoro-N,N-diisopropylbenzamide] | +++ (“+++” means ≥66%) | < 1 nM |  |  |  | 
10 | CC(C)N(C(=O)c1cc(F)ccc1Oc1cncnc1N1CC2(CCN(C[C@@H]3CC[C@@H](NS(=O)(=O)N4CC5COCC5C4)CO3)CC2)C1)C(C)C (stereo partly drawn) [Compound 224, 5-Fluoro-2-((4-(7-(((2S,5R)-5-((hexahydro-1H-furo[3,4-c]pyrrole)-5-sulfonamido)tetrahydro-2H-pyran-2-yl)methyl)-2,7-diazaspiro[3.5]nonan-2-yl)pyrimidin-5-yl)oxy)-N,N-diisopropylbenzamide] | +++ (“+++” means ≥66%) | < 1 nM |  |  |  | 
11 | CCS(=O)(=NC)N[C@@H]1CC[C@@H](CN2CCC3(CC2)CN(c2ncncc2Oc2ccc(F)cc2C(=O)N(C(C)C)C(C)C)C3)OC1 (stereo partly drawn) [Compound 231, 5-Fluoro-N,N-diisopropyl-2-((4-(7-(((2S,5R)-5-(N′-methylethylsulfonoamidimidamido)tetrahydro-2H-pyran-2-yl)methyl)-2,7-diazaspiro[3.5]nonan-2-yl)pyrimidin-5-yl)oxy)benzamide] | +++ (“+++” means ≥66%) |  | < 1 nM |  |  | 
12 | CC(C)N(CC(F)F)C(=O)c1cc(F)ccc1Oc1cncnc1N1CC2(CCN(C[C@@H]3CC[C@@H](NS(=O)(=O)NCC(F)F)CO3)CC2)C1 [Compound 235, N-(2,2-Difluoroethyl)-2-((4-(7-(((2S,5R)-5-((N-(2,2-difluoroethyl)sulfamoyl)amino)tetrahydro-2H-pyran-2-yl)methyl)-2,7-diazaspiro[3.5]nonan-2-yl)pyrimidin-5-yl)oxy)-5-fluoro-N-isopropylbenzamide] | +++ (“+++” means ≥66%) |  | < 1 nM |  |  | 
13 | CC(C)N(CC(F)F)C(=O)c1cc(F)ccc1Oc1cncnc1N1CC2(CCN(C[C@@H]3CC[C@@H](NS(=O)(=O)N(C)CCO)CO3)CC2)C1 [Compound 239, N-(2,2-difluoroethyl)-5-fluoro-2-((4-(7-(((2S,5R)-5-((N-(2-hydroxyethyl)-N-methylsulfamoyl)amino)tetrahydro-2H-pyran-2-yl)methyl)-2,7-diazaspiro[3.5]nonan-2-yl)pyrimidin-5-yl)oxy)-N-isopropylbenzamide] | +++ (“+++” means ≥66%) | < 1 nM |  |  |  | 
14 | CC(C)N(CC(F)F)C(=O)c1cc(F)ccc1Oc1cncnc1N1CC2(CCN(C[C@@H]3CC[C@@H](NS(N)(=O)=O)CO3)CC2)C1 [Compound 240, N-(2,2-Difluoroethyl)-5-fluoro-N-isopropyl-2-((4-(7-(((2S,5R)-5-(sulfamoylamino)tetrahydro-2H-pyran-2-yl)methyl)-2,7-diazaspiro[3.5]nonan-2-yl)pyrimidin-5-yl)oxy)benzamide] | +++ (“+++” means ≥66%) | < 1 nM |  | ≥ 50000 nM |  | 
15 | CC(C)N(CC(F)F)C(=O)c1cc(F)ccc1Oc1cncnc1N1CC2(CCN(C[C@@H]3CC[C@@H](NS(=O)(=O)c4nn(C)cc4F)CO3)CC2)C1 [Compound 241, N-(2,2-Difluoroethyl)-5-fluoro-2-((4-(7-(((2S,5R)-5-((4-fluoro-1-methyl-1H-pyrazole)-3-sulfonamido)tetrahydro-2H-pyran-2-yl)methyl)-2,7-diazaspiro[3.5]nonan-2-yl)pyrimidin-5-yl)oxy)-N-isopropylbenzamide] | ++ (“++” means ≥33% and <66%) | < 1 nM |  |  |  | 
16 | CC(C)N(C(=O)c1cc(F)ccc1Oc1cncnc1N1CC2(CCN(C[C@@H]3CC[C@@H](NS(=O)(=O)N4CCC4)CO3)CC2)C1)C1COC1 [Compound 248, 2-((4-(7-(((2S,5R)-5-(Azetidine-1-sulfonamido)tetrahydro-2H-pyran-2-yl)methyl)-2,7-diazaspiro[3.5]nonan-2-yl)pyrimidin-5-yl)oxy)-5-fluoro-N-isopropyl-N-(oxetan-3-yl)benzamide] | +++ (“+++” means ≥66%) | < 1 nM |  |  |  | 
17 | CC(C)N(C(=O)c1cc(F)ccc1Oc1cncnc1N1CC2(CCN(C[C@@H]3CC[C@@H](NS(=O)(=O)N(C)C)CO3)CC2)C1)C1COC1 [Compound 249, 2-((4-(7-(((2S,5R)-5-((N,N-Dimethylsulfamoyl)amino)tetrahydro-2H-pyran-2-yl)methyl)-2,7-diazaspiro[3.5]nonan-2-yl)pyrimidin-5-yl)oxy)-5-fluoro-N-isopropyl-N-(oxetan-3-yl)benzamide] | +++ (“+++” means ≥66%) | < 1 nM |  |  |  | 
18 | CCS(=O)(=O)N[C@@H]1CC[C@@H](CN2CCC3(CC2)CN(c2ncncc2Oc2ccc(F)cc2C(=O)N(C(C)C)[C@@H]2CC[C@@H]2O)C3)OC1 [Compound 258, 2-((4-(7-(((2S,5R)-5-(Ethylsulfonamido)tetrahydro-2H-pyran-2-yl)methyl)-2,7-diazaspiro[3.5]nonan-2-yl)pyrimidin-5-yl)oxy)-5-fluoro-N-((1R,2S)-2-hydroxycyclobutyl)-N-isopropylbenzamide] | ++ (“++” means ≥33% and <66%) | < 1 nM |  |  | +++ (“+++” means ≥66%) | < 50 nM

— US11919901B2 (Syndax Pharmaceuticals, Inc., priority 2021, dated 2024)
